Reference: patent US12365761B2, “Biodegradable ultra-pH sensitive polymers” (priority 2019, dated 2025)

Test system: TC-1 tumor model
Experiment: PSC7A nanovaccine tumor therapy, TC-1 tumor model
Format: in vivo, C57BL/6 mice
Conditions: TC-1 model, s.c. at tail base, three injections, versus PBS control
Source text: The nanovaccine was made by physically mixing tumor specific antigenic peptides and PSC7A nanoparticles. Non-degradable PC7A based nanovaccines were used for comparison. […] Tumor growth was subsequently measured using a digital caliper and calculated as 0.5×length×width^2. Mice were sacrificed when the tumor volumes reached 2000 mm^3.
PSC7A nanoparticles were first produced and then mixed with tumor-specific antigenic peptides. Human papilloma virus (HPV) E6/E7-transfected TC-1 and murine B16-F10 melanoma tumor models were used. […] In the TC-1 model, E7 peptide antigen (E7p, […] (SEQ. No. 1)) was used. […] Most of the animals were lost within 30 days after tumor inoculation.

In the case of GQAEPDRAHYNIVTFCCKCD [E7p], the tumor growth inhibition is reported as “marginal tumor growth inhibition”.
